Measured values published in the NIST ThermoML archive (doi:10.1021/je060291c).

Assay: wn = mass fraction of the nth substance listed
Settings: Liquid, Pulse-echo method, w2 = 0.49

CC(F)(F)F [1,1,1-trifluoroethane] + FC(F)C(F)(F)F
speed of sound [m/s]
Settings | 253.22 K | 258.15 K | 265.62 K
1150 kPa | – | 574.9 | –
1160 kPa | 598.8 | – | –
1170 kPa | – | 575.3 | 539.5
1190 kPa | – | 575.7 | –
1210 kPa | – | – | 540.1
1260 kPa | 599.7 | 576.3 | 540.5
1380 kPa | 600.9 | 577.6 | 541.7
1500 kPa | 602 | 578.8 | 543
1630 kPa | 603.1 | 580 | 544.3
1750 kPa | 604.2 | 581.2 | 545.7
2010 kPa | 606.4 | 583.4 | 548.3
2250 kPa | 608.7 | 585.8 | 550.8
2510 kPa | 610.9 | 588.1 | 553.3
2750 kPa | 613.1 | 590.3 | 555.9
3010 kPa | 615.1 | 592.6 | 558.4
3500 kPa | 619.3 | 597.1 | 563.3
4000 kPa | 623.7 | 601.5 | 568.3
4500 kPa | 627.9 | 606.1 | 572.9
5000 kPa | 631.9 | 610.4 | 577.7
6010 kPa | 639.9 | 618.6 | 586.7
7010 kPa | 647.5 | 626.7 | 595.3
8000 kPa | 655.1 | 634.7 | 603.7
9000 kPa | 662.6 | 642.2 | 612.1
10000 kPa | 669.8 | 649.7 | 620.3
12000 kPa | 683.6 | 664 | 635.3
14000 kPa | 697 | 677.9 | –
16010 kPa | 709.7 | 691.3 | –
18000 kPa | 722.2 | 704.1 | –
20000 kPa | 734.3 | 716.5 | –
23000 kPa | 751.6 | 734.2 | –
26000 kPa | 768.1 | 751.1 | –
29010 kPa | 783.7 | 767.3 | –
32000 kPa | 798.4 | 782.5 | –
35000 kPa | 812.8 | 797.1 | –
40000 kPa | 835.8 | 820.8 | –
45000 kPa | 857.8 | 843.3 | –
50000 kPa | 878.9 | 864.3 | –
55000 kPa | 899 | 884.5 | –
60000 kPa | 918.8 | 904.1 | –
65000 kPa | 937.2 | 923.1 | –
